Test results published in article PMC5862892, “Near-native, site-specific and purification-free protein labeling for quantitative protein interaction analysis by MicroScale Thermophoresis” (Scientific Reports, 2018).
“Also recorded” adds a separate entry of the source.

Legend:
[1] = biological target: pUL50 (Human cytomegalovirus) (UniProt P16791); assay: ITC; settings: cited from earlier work
mNeonGreen-His6 = assay: MST: mNeonGreen-His6 negative control against SB203580 in HeLa cell lysate; type: binding
His-tag = biological target: His-tag; parameters: method as in PMID 16028931; settings: read-out: molecular binding affinity of Ni(II)-NTA for His-tag; cited from earlier work

Chain of UniProt P16791 (P16791 whole entry): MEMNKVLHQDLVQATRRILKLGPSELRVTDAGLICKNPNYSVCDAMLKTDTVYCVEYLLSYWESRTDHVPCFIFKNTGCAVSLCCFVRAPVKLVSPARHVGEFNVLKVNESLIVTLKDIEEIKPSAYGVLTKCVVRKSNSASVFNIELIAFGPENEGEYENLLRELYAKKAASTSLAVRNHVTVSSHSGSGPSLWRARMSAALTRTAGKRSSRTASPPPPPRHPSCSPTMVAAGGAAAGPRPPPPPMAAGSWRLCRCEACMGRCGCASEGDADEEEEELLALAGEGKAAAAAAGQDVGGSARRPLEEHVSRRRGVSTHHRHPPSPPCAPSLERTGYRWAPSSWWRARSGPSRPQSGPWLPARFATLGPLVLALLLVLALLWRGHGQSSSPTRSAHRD

Compound: pUL53 (from UniProt P16794)
- Kd [1]: 0.29 µM

Compound: C[S+]([O-])c1ccc(-c2nc(-c3ccncc3)c(-c3ccc(F)cc3)[nH]2)cc1 (stereo not drawn) [SB203580]
- binding to RED-tris-NTA labeled mNeonGreen-His6 (p38α-free negative control) (mNeonGreen-His6): no binding could be detected; also recorded: did not yield a binding curve

Compound: O=C(O)CN(CC(=O)O)CC(=O)O [NTA, nitrilotriacetic acid]
- Kd (His-tag): ~10 µM
